According to PMC7003846, “Effects of the ventilatory stimulant, doxapram on human TASK‐3 (KCNK9, K2P9.1) channels and TASK‐1 (KCNK3, K2P3.1) channels” (Acta Physiologica (Oxford, England), 2019):
Where two headings read alike, the source gives them in different places.

Columns and labels:
[1] = opioid challenged cynomolgus monkeys, intravenous; cited from earlier work
[2] = opioid challenged rats, intravenous; cited from earlier work
human TASK-3 = molecular target: T1, human TASK-3 (Homo sapiens, UniProt Q9NPC2); assay: Whole-cell patch clamp on tsA201 cells expressing cloned human TASK-3; type: cell-based; details: for inhibition of human TASK-3 current: acute application; for EC50: tsA201 cells, whole-cell patch clamp, room temperature, read-out: EC50, inhibition of human TASK-3 current
T1 construct: expressed in transfected cells; host or cells: tsA201 (modified HEK293), transient transfection, pcDNA3.1+
Experimental: (§1) Murine (mur) wild‐type (WT) TASK‐1 (KCNK3, Genbank^TM DQ185133) and WT murTASK‐3 (KCNK9, Genbank^TM AH009585.2) cDNA were cloned into pCS2^+ vector and were a kind gift from William Wisden (Imperial College, UK). Human WT TASK‐1 (Genbank^TM AF006823.1), WT TASK‐3 (Genbank^TM AF212829) and WT TASK‐2 (KCNK5, Genbank^TM AF084830.1) cDNA’s, were cloned into pcDNA3.1^+ vector (Invitrogen) and were a kind gift from Helen Meadows (GlaxoSmithKline).
(§2) All experiments were performed using a modified human embryonic kidney 293 cell line, tsA201 (ECACC; Sigma‐Aldrich), prepared and maintained as previously described.54
(§3) For the electrophysiological experiments, cells were transiently transfected using a modified calcium phosphate protocol, following a process as previously described.54 Vectors cloned with the gene of interest and a similar vector encoding the cDNA for GFP were added to each well at a concentration of 0.5 µg per well, with the exception being for murTASK‐3, where 0.125 µg per well was used.
(§4) Currents were recorded from tsA201 cells transiently transfected with the channel of interest using whole‐cell patch clamp in a voltage clamp configuration and a step‐ramp voltage protocol as previously described.54 Briefly, all experiments were conducted at room temperature (20‐24°C) using an external solution composed of 145 mM of NaCl, 2.5 mM of KCL, 3 mM of MgCl2, 1 mM of CaCl2 and 10 mM of HEPES (pH 7.4, using NaOH) and an intracellular pipette solution composed of 150 mM of KCL, 3 mM of MgCl2, 5 mM of EGTA and 10 mM of HEPES (pH adjusted to 7.4 with KOH). External solution and modulatory compounds were superfused at a rate of 4‐5 mL min^−1. Currents were recorded using an Axopatch 1D patch clamp amplifier (Molecular Devices), filtered at 0.3 kHz, digitized at 1 kHz.
(§5) For analysis of outward current, we measured the current difference between the −80 and −40 mV. The current‐voltage graphs were obtained from the ramp change in voltage between −120 and +20 mV. For each cell, the current amplitude (pA) was normalized to the cell capacitance (pF). The currents obtained were analysed using pCLAMP 10.2 software (Molecular Devices), Microsoft Excel and GraphPad Prism 6 or 7 software. Data were expressed as the mean ± 95% Confidence Intervals (CI), and n represents the number of individual cells. For EC50 calculations, concentration‐response curves were fitted using the Hill equation. Statistical analysis used were one‐way ANOVA with a post‐hoc Dunnett's test or an unpaired/paired Student's t test. Data were considered statistically different if P < .05. The data and statistical analysis comply with the recommendations on experimental design and analysis in pharmacology.55

human TASK-1 = molecular target: T2, human TASK-1 (Homo sapiens, UniProt O14649); assay: Whole-cell patch clamp on tsA201 cells expressing cloned human TASK-1; type: cell-based; details: for inhibition of human TASK-1 current: acute application; for EC50: tsA201 cells, whole-cell patch clamp, room temperature, read-out: EC50, inhibition of human TASK-1 current
T2 construct: expressed in transfected cells; host or cells: tsA201 (modified HEK293), transient transfection, pcDNA3.1+
Experimental: as §1, §2, §3, §4, §5

murTASK-1 = molecular target: T3, murTASK-1 (Mus musculus, UniProt O35111); assay: Whole-cell patch clamp on tsA201 cells expressing cloned mouse TASK-1; type: cell-based; details: 10 µM, acute application
T3 construct: expressed in transfected cells; host or cells: tsA201 (modified HEK293), transient transfection, pCS2+
Experimental: as §1, §2, §3, §4, §5

murTASK-3 = molecular target: T4, murTASK-3 (Mus musculus, UniProt Q3LS21); assay: Whole-cell patch clamp on tsA201 cells expressing cloned mouse TASK-3; type: cell-based; details: 10 µM, acute application
T4 construct: expressed in transfected cells; host or cells: tsA201 (modified HEK293), transient transfection, pCS2+
Experimental: as §1, §2, §3, §4, §5

T1 sequence (Q9NPC2 whole entry): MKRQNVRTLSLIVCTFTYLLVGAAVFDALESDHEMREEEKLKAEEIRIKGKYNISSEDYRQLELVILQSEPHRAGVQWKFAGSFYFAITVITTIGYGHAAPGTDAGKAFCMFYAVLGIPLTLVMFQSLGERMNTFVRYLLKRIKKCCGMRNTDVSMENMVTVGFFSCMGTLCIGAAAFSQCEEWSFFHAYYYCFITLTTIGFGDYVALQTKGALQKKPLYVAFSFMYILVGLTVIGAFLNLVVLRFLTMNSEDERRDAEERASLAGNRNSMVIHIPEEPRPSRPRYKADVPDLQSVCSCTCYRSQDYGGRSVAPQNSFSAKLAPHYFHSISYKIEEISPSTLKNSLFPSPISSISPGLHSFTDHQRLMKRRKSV
T2 sequence (O14649 whole entry): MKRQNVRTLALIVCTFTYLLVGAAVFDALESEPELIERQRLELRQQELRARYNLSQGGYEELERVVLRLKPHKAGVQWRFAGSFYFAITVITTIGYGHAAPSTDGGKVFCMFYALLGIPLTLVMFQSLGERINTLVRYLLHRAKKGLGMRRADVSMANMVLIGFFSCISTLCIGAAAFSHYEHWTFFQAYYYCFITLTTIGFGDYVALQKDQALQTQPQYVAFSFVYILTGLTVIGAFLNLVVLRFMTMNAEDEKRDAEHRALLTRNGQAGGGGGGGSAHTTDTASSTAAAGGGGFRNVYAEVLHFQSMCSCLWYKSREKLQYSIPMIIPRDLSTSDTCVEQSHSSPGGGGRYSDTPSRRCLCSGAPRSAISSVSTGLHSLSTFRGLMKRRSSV
T4 sequence (Q3LS21 whole entry): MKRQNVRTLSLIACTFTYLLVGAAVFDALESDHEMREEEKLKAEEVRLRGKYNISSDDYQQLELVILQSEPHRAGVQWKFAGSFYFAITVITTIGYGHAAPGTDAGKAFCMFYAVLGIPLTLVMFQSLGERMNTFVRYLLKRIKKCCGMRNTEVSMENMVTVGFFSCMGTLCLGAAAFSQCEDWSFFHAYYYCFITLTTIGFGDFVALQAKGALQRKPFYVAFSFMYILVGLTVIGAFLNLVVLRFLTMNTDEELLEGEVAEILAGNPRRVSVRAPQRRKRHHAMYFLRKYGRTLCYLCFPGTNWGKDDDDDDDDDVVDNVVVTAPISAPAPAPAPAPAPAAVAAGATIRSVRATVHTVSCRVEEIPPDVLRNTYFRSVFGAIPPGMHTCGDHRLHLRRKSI
T3 sequence (O35111 whole entry): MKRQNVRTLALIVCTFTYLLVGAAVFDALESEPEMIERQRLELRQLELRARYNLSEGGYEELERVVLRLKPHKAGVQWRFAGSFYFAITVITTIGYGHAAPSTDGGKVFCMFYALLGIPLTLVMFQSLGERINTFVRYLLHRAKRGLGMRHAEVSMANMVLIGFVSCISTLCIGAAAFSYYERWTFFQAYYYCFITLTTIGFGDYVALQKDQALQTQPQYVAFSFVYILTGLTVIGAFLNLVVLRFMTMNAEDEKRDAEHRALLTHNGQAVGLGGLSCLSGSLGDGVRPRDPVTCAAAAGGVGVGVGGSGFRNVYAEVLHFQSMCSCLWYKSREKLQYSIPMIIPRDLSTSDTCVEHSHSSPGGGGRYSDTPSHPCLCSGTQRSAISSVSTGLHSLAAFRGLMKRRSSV

| Structure (SMILES) | effect on minute volume [1] | effect on minute volume [2] | inhibition of human TASK-3 current (human TASK-3; 10 µM, WT) [%] | inhibition of human TASK-3 current (human TASK-3; 100 µM, WT) [%] | inhibition of human TASK-3 current (human TASK-3; 300 µM) [%] | EC50 (human TASK-3) [µM] | inhibition of human TASK-1 current (human TASK-1; 10 µM) [%] | inhibition of human TASK-1 current (human TASK-1; 100 µM) [%] | inhibition of human TASK-1 current (human TASK-1; 300 µM) [%] | EC50 (human TASK-1) [µM] | current inhibition of murTASK-1 (murTASK-1) [%] | inhibition of human TASK-3 current (human TASK-3; 1 µM) [%] | inhibition of human TASK-3 current (human TASK-3; 3 µM) [%] | inhibition of human TASK-1 current (human TASK-1; 1 µM) [%] | inhibition of human TASK-1 current (human TASK-1; 3 µM) [%] | current inhibition of murTASK-3 (murTASK-3) [%] |
| --- | --- | --- | --- | --- | --- | --- | --- | --- | --- | --- | --- | --- | --- | --- | --- | --- |
| CCN1CC(CCN2CCOCC2)C(c2ccccc2)(c2ccccc2)C1=O (stereo not shown) [GAL‐053] | had no effect | had no effect | 8 | 35 | 50 | ~286 | 3 | 24 | 47 | ~336 |  |  |  |  |  |  |
| CCN1CC(CCN2CCOCC2)C(c2ccccc2)(c2ccccc2)C1=O (stereo not shown) [GAL‐054] | dose‐dependently increased minute volume | dose‐dependently increased minute volume | 79 |  |  | ~1.4 | 75 |  |  | ~1.6 | 63 | 43 | 66 | 45 | 54 | 33 |
